A word on the melting point: it is the temperature of the solid-liquid transition.

Results on 8 compounds are retold here after patent US7125903B1 (Aventis Pharmaceuticals Inc., priority 1999, dated 2006).

The structures appear in SMILES notation. Where a name gives a salt, the structure may show the parent alone.

In turn, `N#Cc1ccccc1N1CCN(C[C@@H](O)COc2cccc(-c3noc4ccsc34)c2)CC1` [Example 50, 2-{4-[(R)-2-hydroxy-3-(3-thieno[2,3-d]isoxazol-3-yl-phenoxy)-propyl]piperazin-1-yl}benzonitrile] displayed a melting point of 87 to 89 °C.
The result for `C[C@@](O)(CNCc1cccs1)COc1cccc(-c2noc3ccsc23)c1.O=C(O)/C=C\C(=O)O` [Example 27] reads 120 to 121 °C.
Take `COc1ccc2[nH]nc(N3CCN(C[C@@H](O)COc4cccc(-c5noc6ccsc56)c4)CC3)c2c1` [Example 12, (2R)-1-[4-(5-methoxy-1H-indazol-3-yl)-piperazin-1-yl]-3-(3-thieno[2,3-d]isoxazol-3-yl-phenoxy)-propan-2-ol]: the melting point is 84 to 86 °C.
The result for `O[C@@H](COc1cccc(-c2noc3ccsc23)c1)CN1CCN(c2n[nH]c3cc(F)ccc23)CC1` [Example 11, (2R)-1-[4-(6-fluoro-1H-indazol-3-yl)-piperazin-1-yl]-3-(3-thieno[2,3-d]isoxazol-3-yl-phenoxy)-propan-2-ol] reads 97 to 99 °C; that for `COc1ccc(N2CCN(C[C@@H](O)COc3cccc(-c4noc5ccsc45)c3)CC2)cc1` [Example 48, (2R)-1-[4-(4-methoxyphenyl)piperazin-1-yl]-3-(3-thieno[2,3-d]isoxazol-3-yl-phenoxy)-propan-2-ol], 110 to 113 °C.
On to `O[C@@H](COc1cccc(-c2noc3ccsc23)c1)CN1CCN(c2ccccc2C(F)(F)F)CC1` [Example 52, (2R)-1-(3-thieno[2,3-d]isoxazol-3-yl-phenoxy)-3-[4-(2-trifluoromethylphenyl)-piperazin-1-yl]propan-2-ol], for which the melting point was in the range of 77 to 79 °C.
Compound `O[C@@H](COc1cccc(-c2noc3ccsc23)c1)CN1CCN(c2ccccc2)CC1` [Example 49, (2R)-1-(4-phenylpiperazin-1-yl)-3-(3-thieno[2,3-d]isoxazol-3-yl-phenoxy)propan-2-ol] displayed a melting point of 127 to 129 °C.
`O[C@@H](COc1cccc(-c2noc3ccsc23)c1)CN1CCN(Cc2ccc3c(c2)OCO3)CC1` (as salt: hydrochloride) [Example 51, (2R)-1-(4-benzo[1,3]dioxol-5-ylmethyl-piperazin-1-yl)-3-(3-thieno[2,3-d]isoxazol-3-yl-phenoxy)propan-2-ol] showed a melting point of 225 to 227 °C.
